Consider 29 compounds from patent US20080255192A1, “Methods and Compositions for Selectin Inhibition” (Wyeth, priority 2007, published 2008).

Bounds are passed on as bounds.

This test concerns the target T1, P-selectin/PSGL-1 interaction (Homo sapiens, UniProt P16109).
T1 construct: comprised of the lectin and epidermal growth factor-like (EGF) domains expressed in CHO cells; made in house; host or cells: CHO cells (P-LE)
T1 sequence (P16109 42-198): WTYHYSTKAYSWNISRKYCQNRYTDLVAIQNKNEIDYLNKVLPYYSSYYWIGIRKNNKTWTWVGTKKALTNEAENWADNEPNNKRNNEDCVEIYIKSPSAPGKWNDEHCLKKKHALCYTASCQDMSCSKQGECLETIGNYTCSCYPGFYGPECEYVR
Nature of the test: Biacore P-Selectin/PSGL-1 Inhibition Assay (surface plasmon resonance). Format: binding. As to conditions: 250 uM test compound, 500 nM P.LE, immobilized PSGL-1 19ek, 10% DMSO, pH 7.4. The method, then: Surface plasmon resonance assays were performed on a Biacore 3000 instrument (Biacore Inc. Piscataway, N.J.) at 25° C. at a flow rate of 30 μL/minute and each assay consisted of a 60-second equilibration, a 60-μL sample injection (kinject), and a 300-second dissociation.
A purified, monomeric, truncated form of human PSGL-1, “19ek”, that contained all the necessary P-selectin binding determinants (see Goetz, et al., J. Cell Biol., 1997, 137: 509-519; and Sako, et al., Cell, 1995, 83: 323-331) was biotinylated via amine chemistry (Sulfo-NHS-LC-Biotin, Peirce) at a unique C-terminal lysine residue (see Somers, et al., Cell, 2000, 103: 467-479) and immobilized on a Biacore SA sensor chip (Biacore Inc.), using an HBS-EP buffer (Biacore Inc.), and the target 600-700 RU. The coated chip was re-equilibrated with an HBS-P buffer (Biacore Inc.) to which 1 mM CaCl2 and 1 mM MgCl2 (both from Fisher) were added to ensure sufficient calcium for the calcium-dependent interaction between the receptor and the ligand.
Test compounds were incubated for 1 hour in a 1.1× Biacore assay buffer. Each solution was centrifuged through a 0.2 µm filter, using a 96-well plate format (Millipore). Glycyrrhizin tri-sodium salt (TCI) was prepared as a positive control in parallel with the test compounds, in the same manner described above.
A soluble recombinant truncated form of human P-selectin, P-LE, comprised of the lectin and epidermal growth factor-like (EGF) domains expressed in CHO cells (see Somers, et al., Cell, 2000, 103: 467-479) was added to each filtered test compound solution. Final concentrations of reagents were 500 nM P.LE, 250 or 500 μM test compound (depending on structure) or 1 mM glycyrrhizin, 10% DMSO, and 1× Biacore buffer ([…], 150 mM NaCl, 1 mM CaCl2, and 1 mM MgCl2 (all reagents from Fisher)), with a pH of 7.4. Compounds active at 250 μM were titrated to further define activity. Test samples were supplied to the Biacore instrument in a 96-well plate.
The Biacore raw data file was exported as a text file to an Excel spreadsheet, where the buffer blanks bracketing the samples were averaged for each Biacore instrument flow cell (Fc), and subtracted from the averaged uninhibited P.LE samples and from all the other samples. The reference signal from Fcl (uncoated) was then subtracted from its corresponding active (coated) signal for each injection, a process known as double referencing (see Myszka, J. Mol. Recognit., 1999, 12(5): 279-284). The percent inhibition of binding was calculated by dividing the reference-subtracted inhibited signal by the reference-subtracted uninhibited signal, subtracting this value from 1, and multiplying the resulting value by 100. The replicate percent inhibition values were averaged and expressed as the mean ±standard deviation. The inter-experiment standard deviation of calculated percent inhibitions in the Biacore assay was ±5.
As for `O=C(O)c1c(O)c(C2(c3ccccc3)CC2)nc2ccc(OC(F)(F)F)cc12` [Compound 29, 3-hydroxy-2-(1-phenylcyclopropyl)-6-(trifluoromethoxy)quinoline-4-carboxylic acid], the inhibition at 250 µM turned out to be 10%. For `O=C(O)c1c(O)c(C2(c3ccccc3)CC2)nc2ccc(Cl)cc12` [Compound 30, 6-chloro-3-hydroxy-2-(1-phenylcyclopropyl)quinoline-4-carboxylic acid] the value was at most 10%; for `Cc1cccc2c(C(=O)O)c(O)c(C3(c4ccccc4)CC3)nc12` [Compound 31, 3-hydroxy-8-methyl-2-(1-phenylcyclopropyl)quinoline-4-carboxylic acid], at most 10%. The value for `O=C(O)c1c(O)c(C2(c3ccccc3)CC2)nc2ccc(C(F)(F)F)cc12` [Compound 32, 3-hydroxy-2-(1-phenylcyclopropyl)-6-(trifluoromethyl)quinoline-4-carboxylic acid] was at most 10%; that for `Cc1ccc2nc(C3(c4ccccc4)CC3)c(O)c(C(=O)O)c2c1` [Compound 33, 3-hydroxy-6-methyl-2-(1-phenylcyclopropyl)quinoline-4-carboxylic acid] was at most 10%. For `O=C(O)c1c(O)c(C2(c3ccccc3)CC2)nc2c(C(F)(F)F)cccc12` [Compound 34, 3-hydroxy-2-(1-phenylcyclopropyl)-8-(trifluoromethyl)quinoline-4-carboxylic acid] the value was 44%; for `O=C(O)c1c(O)c(C2(c3ccccc3)CC2)nc2c(-c3ccsc3)cccc12` [Compound 35, 3-hydroxy-2-(1-phenylcyclopropyl)-8-(thiophen-3-yl)quinoline-4-carboxylic acid], 70%; for `O=C(O)c1c(O)c(C2(c3ccc(Cl)cc3)CC2)nc2c3c(ccc12)CCCC3` [Compound 36, 2-(1-(4-chlorophenyl)cyclopropyl)-3-hydroxy-7,8,9,10-tetrahydrobenzo[h]quinoline-4-carboxylic acid], 67%.

In the case of `O=C(O)c1c(O)c(C2(c3ccc(Cl)cc3)CC2)nc2c(-c3ccsc3)cccc12` [Compound 37, 2-(1-(4-chlorophenyl)cyclopropyl)-3-hydroxy-8-(thiophen-3-yl)quinoline-4-carboxylic acid], the inhibition at 250 µM turned out to be 78%. For `O=C(O)c1c(O)c(C2(c3ccc(Cl)cc3)CC2)nc2c(C(F)(F)F)cccc12` [Compound 38, 2-(1-(4-chlorophenyl)cyclopropyl)-3-hydroxy-8-(trifluoromethyl)quinoline-4-carboxylic acid] the value was 52%; for `CC(C)c1cccc2c(C(=O)O)c(O)c(C3(c4ccc(Cl)cc4)CC3)nc12` [Compound 39, 2-(1-(4-chlorophenyl)cyclopropyl)-3-hydroxy-8-isopropylquinoline-4-carboxylic acid], 66%. Take `Cc1ccc2c(C(=O)O)c(O)c(C3(c4ccc(Cl)cc4)CC3)nc2c1C` [Compound 40, 2-(1-(4-chlorophenyl)cyclopropyl)-3-hydroxy-7,8-dimethylquinoline-4-carboxylic acid]: the inhibition at 250 µM was found to be 53%.

As for `O=C(O)c1c(O)c(C2(c3ccc(Cl)cc3)CC2)nc2c(C(O)(C(F)(F)F)C(F)(F)F)cccc12` [Compound 41, 2-(1-(4-chlorophenyl)cyclopropyl)-8-(1,1,1,3,3,3-hexafluoro-2-hydroxypropan-2-yl)-3-hydroxyquinoline-4-carboxylic acid], the inhibition at 250 µM was at most 10%. The value for `O=C(O)c1c(O)c(C2(c3ccccc3)CC2)nc2c3c(ccc12)CCCC3` [Compound 42, 3-hydroxy-2-(1-phenylcyclopropyl)-7,8,9,10-tetrahydrobenzo[h]quinoline-4-carboxylic acid] was 52%. The value for `Cc1ccc2c(C(=O)O)c(O)c(C3(c4ccccc4)CC3)nc2c1C` [Compound 43, 3-hydroxy-7,8-dimethyl-2-(1-phenylcyclopropyl)quinoline-4-carboxylic acid] was 18%; that for `CC(C)c1cccc2c(C(=O)O)c(O)c(C3(c4ccccc4)CC3)nc12` [Compound 44, 3-hydroxy-8-isopropyl-2-(1-phenylcyclopropyl)quinoline-4-carboxylic acid] was 63%; that for `O=C(O)c1c(O)c(C2(c3ccccc3)CC2)nc2c(-c3ccccc3)cccc12` [Compound 45, 3-hydroxy-8-phenyl-2-(1-Phenylcyclopropyl)quinoline-4-carboxylic acid] was 37%. `O=C(O)c1c(O)c(C2(c3ccccc3)CC2)nc2c(OC(F)(F)F)cccc12` [Compound 46, 3-hydroxy-2-(1-phenylcyclopropyl)-8-(trifluoromethoxy)quinoline-4-carboxylic acid] showed an inhibition at 250 µM of at most 10%. In turn, `O=C(O)c1c(O)c(C2(c3ccccc3)CC2)nc2c(Cl)cccc12` [Compound 47, 8-chloro-3-hydroxy-2-(1-phenylcyclopropyl)quinoline-4-carboxylic acid] came in with an inhibition at 250 µM of at most 10%. For `O=C(O)c1c(O)c(C2(c3ccccc3)CC2)nc2ccc(C(O)(C(F)(F)F)C(F)(F)F)cc12` [Compound 48, 6-(1,1,1,3,3,3-hexafluoro-2-hydroxypropan-2-yl)-3-hydroxy-2-(1-phenylcyclopropyl)quinoline-4-carboxylic acid], the inhibition at 250 µM was at most 10%. The value for `O=C(O)c1c(O)c(C2(c3ccccc3)CC2)nc2c(C(O)(C(F)(F)F)C(F)(F)F)cccc12` [Compound 49, 8-(1,1,1,3,3,3-hexafluoro-2-hydroxypropan-2-yl)-3-hydroxy-2-(1-phenylcyclopropyl)quinoline-4-carboxylic acid] was 58%.

Turning to `COc1ccc(C2(c3nc4c(C(F)(F)F)cccc4c(C(=O)O)c3O)CC2)cc1` [Compound 50, 3-hydroxy-2-(1-(4-methoxyphenyl)cyclopropyl)-8-(trifluoromethyl)quinoline-4-carboxylic acid], the inhibition at 250 µM turned out to be 36%.

Compound `COc1ccc(C2(c3nc4c5c(ccc4c(C(=O)O)c3O)CCCC5)CC2)cc1` [Compound 51, 3-hydroxy-2-(1-(4-methoxyphenyl)cyclopropyl)-7,8,9,10-tetrahydrobenzo[h]quinoline-4-carboxylic acid] came in with an inhibition at 250 µM of 38%. For `O=C(O)c1c(O)c(C2(c3ccc(C(F)(F)F)cc3)CC2)nc2c(C(F)(F)F)cccc12` [Compound 52, 3-hydroxy-8-(trifluoromethyl)-2-(1-(4-(trifluoromethyl)phenyl)cyclopropyl)quinoline-4-carboxylic acid] the value was 47%; for `O=C(O)c1c(O)c(C2(c3ccc(Br)cc3)CC2)nc2c(C(F)(F)F)cccc12` [Compound 53, 2-(1-(4-bromophenyl)cyclopropyl)-3-hydroxy-8-(trifluoromethyl)quinoline-4-carboxylic acid], 64%.

As for `O=C(O)c1c(O)c(C2(c3cccc(Cl)c3)CC2)nc2c(C(F)(F)F)cccc12` [Compound 54, 2-(1-(3-chlorophenyl)cyclopropyl)-3-hydroxy-8-(trifluoromethyl)quinoline-4-carboxylic acid], 250 µM produced 66% inhibition. For `O=C(O)c1c(O)c(C2(c3ccccc3Cl)CC2)nc2c(C(F)(F)F)cccc12` [Compound 55, 2-(1-(2-chlorophenyl)cyclopropyl)-3-hydroxy-8-(trifluoromethyl)quinoline-4-carboxylic acid] the value was 57%; for `O=C(O)c1c(O)c(C2(c3ccc(OC(F)(F)F)cc3)CC2)nc2c(C(F)(F)F)cccc12` [Compound 56], 29%. The compound `O=C(O)c1c(O)c(C2(c3cccc(C(F)(F)F)c3)CC2)nc2c(C(F)(F)F)cccc12` [Compound 57, 3-hydroxy-8-(trifluoromethyl)-2-(1-(3-(trifluoromethyl)phenyl)cyclopropyl)quinoline-4-carboxylic acid] displayed an inhibition at 250 µM of 42%.

Usually inhibition stands for the change of the read-out against control, counted positive when it falls.
